Type in all cases: biochemical
In one experiment the target is T1, chymotrypsin (Bos taurus, UniProt P00766).
T1 construct: purchased Sigma-Aldrich
Briefly: Chymotrypsin reaction, test for non-specific activity (410 nm). The conditions noted are these: alternative enzyme chymotrypsin; 30 nM enzyme, 200 μM N-succinyl-Ala-Ala-Pro-Phe p-nitroanilide, 25°C. As to the method: (§1) Chymotrypsin reactions were followed at 410 nm using 30 nM enzyme and 200 μM N-succinyl-Ala-Ala-Pro-Phe p-nitroanilide at 25°C. β-galactosidase reactions were followed at 420 nm using 4 nM enzyme and 1 mM 2-nitrophenyl β-D-galactopyranoside at 37°C. […] Enzymes and substrates were purchased from Sigma-Aldrich.

The next experiment addresses TEM L220N (Escherichia coli, UniProt P62593, L218N/M180T).
Experiment [1] concerns the target TEM β-lactamase (TEM, M182T variant) (Escherichia coli, UniProt P62593, M180T). The experiment can be described thus: TEM β-lactamase nitrocefin hydrolysis activity assay (UV-vis, 482 nm). The following applies: for % change in rate: 50 µM nitrocefin; for kcat: TEM + 100 µM compound, nitrocefin.
For another experiment, the system named is β-galactosidase. The experiment can be described thus: β-galactosidase reaction, test for non-specific activity (420 nm). The conditions noted are these: alternative enzyme β-galactosidase; 4 nM enzyme, 1 mM 2-nitrophenyl β-D-galactopyranoside, 37°C. The method, then:
as §1

The next experiment deals with TEM T265V (Escherichia coli, UniProt P62593, M180T/T261V).
Where [2] appears, read: detergent-dependence: 0.01% Triton-X.
[3] abbreviates: detergent-dependence: 0% Triton-X.

Consider `Oc1ccc(CC[C@H]2CC[C@H](c3ccc(O)cc3)CO2)cc1` (relative stereo) [compound 1], for which the “% change in rate” value at chymotrypsin was -5%; in experiment [1] (10x enzyme test: 1 nM TEM) it was “+65%”; in experiment [1] (setting [2]), “+66%”; in the experiment on β-galactosidase, “+2%”. Also, the figures for the kcat (at TEM L220N; in experiment [1]) were 5.2 ± 0.3 s⁻¹ and 527 ± 8 s⁻¹, respectively.

In the case of `COc1cccc(C(=O)C[C@@H](c2ccccc2)C(C)(C)[N+](=O)[O-])c1` (racemic) [compound 3], the “% change in rate” value is on record as -2% on chymotrypsin; -47% in experiment [1] (10x enzyme test: 1 nM TEM); -48% in experiment [1] (10x enzyme test: 10 nM TEM); -40% in experiment [1] (setting [3]); -45% in experiment [1] (setting [2]); “+3%” with β-galactosidase. In addition, in experiment [1], the kcat is 256 ± 28 s⁻¹. Moreover, the “% modulation of kcat / Km” value in experiment [1] (TEM, 100 µM compound vs no compound) is -59%. In experiment [1] (TEM, as worded in the text (decreasing kcat/Km by)), the “decrease of kcat/Km” value stood at 59%.

`c1nc(NCCCN2CCOCC2)c2c3c(sc2n1)CCCC3` [compound 2]: the “% change in rate” value on chymotrypsin is on record as -1%; in experiment [1] (10x enzyme test: 1 nM TEM), “+38%”; in experiment [1] (10x enzyme test: 10 nM TEM), “+33%”; in experiment [1] (setting [3]), “+30%”; in experiment [1] (setting [2]), “+33%”; in the experiment on β-galactosidase it was “+5%”. The kcat on TEM T265V is 307 ± 17 s⁻¹; in experiment [1], 334 ± 5 s⁻¹.

A word on the kcat: it is the maximal rate divided by the concentration of active sites.

The record behind these values is paper PMC5453556, “Designing small molecules to target cryptic pockets yields both positive and negative allosteric modulators” (PLoS ONE, 2017).
